Consider four sequences from article PMC4528135, “Kinetic Investigations of the Role of Factor Inhibiting Hypoxia-inducible Factor (FIH) as an Oxygen Sensor” (The Journal of Biological Chemistry, 2015).

Holding throughout (assay type): biochemical
Assay [1] deals with T1, PHD2 (Homo sapiens, UniProt Q9GZT9).
T1 construct: The catalytic domain of PHD2 (residues 181–426) was purified as described; made in house
The assay is described as follows: Rapid quench-flow, PHD2 pre-steady-state product and succinate formation. Conditions: same mixture as stopped-flow, O2-saturated buffer 1:1, 5 °C, quenched with 1% CF3CO2H; for Rapid quench-flow kproduct: peptide hydroxylation by MALDI-TOF-MS, single exponential fit; for Rapid quench-flow ksuccinate: succinate by LC-MS. The method, then:
Rapid quench-flow experiments were performed using the same conditions and preparation of the assay mixture as used in stopped-flow experiments. Rapid quench-flow equipment (TgK Scientific Ltd.) in an anaerobic glove box was used for the experiments. Samples were quenched with 1% CF3CO2H and analyzed using MALDI-TOF-MS (peptide hydroxylation) as described above or liquid chromatography-mass spectrometry (LC-MS, for succinate production). For LC-MS, chromatographic separation was performed at 50 °C using a Waters ACQUITY BEH Amide 1.7-μm, 2.1 × 100-mm column on a Waters ACQUITY^TM ultraperformance liquid chromatography system (Waters Corp., Milford, MA). The following eluents were used: mobile phase A: 10% H2O, 90% acetonitrile (v/v), 10 mM ammonium formate; mobile phase B: 50% H2O, 50% acetonitrile (v/v), 10 mM ammonium formate. The elution gradient was 0–7.0 min linear from 10 to 30% B, and 7.0–9.0 min at 10% B for re-equilibration of the column. A constant flow rate of 0.4 ml/min was used. Analytes were detected in negative ionization mode using single reaction monitoring on a Quattro triple quadrupole mass spectrometer (Waters) with a cone voltage of 15 V and a capillary voltage of 3.0 kV. The desolvation temperature was set to 250 °C, and the source temperature was set to 120 °C.
To investigate correlation of the spectroscopic observations with rates of product accumulation, equivalent reactions were analyzed by rapid quench-flow methodology. Anerobically prepared PHD2·Fe(II)·2OG·peptide substrate complexes were mixed with O2-saturated buffer in a 1:1 ratio; reactions were quenched at defined time points with 1% aqueous CF3CO2H. The level of peptide hydroxylation was assessed by MALDI-TOF-MS ([42]), and succinate accumulation was analyzed by LC-MS. To obtain rate constants for product accumulation, the results were fitted with a single exponential function (Fig. 5E and Table 3).

Assay [2] concerns the target T2, PHD2 (catalytic domain, residues 181–426) (Homo sapiens, UniProt Q9GZT9).
T2 construct: The catalytic domain of PHD2 (residues 181–426) was purified as described; made in house
The assay is described as follows: Steady-state kinetics of PHD2-catalyzed HIF-α CODD/NODD hydroxylation (MALDI-TOF-MS). As to conditions: 4 mM L-ascorbate, 50 mM HEPES pH 7.5, 37 °C; for kcat^app: PHD2, 4 μM PHD2, 50 μM Fe(II); for Km: 50 μM Fe(II), triplicate assays. The protocol: (§1) Enzymatic assays were conducted as described ([46], [47]). Unless otherwise stated, the assay mixture typically contained 5 μM FIH, 500 μM substrate, 500 μM 2OG, 1 mM L-ascorbate, and 50 μM Fe(NH4)2(SO4)2 or 4 μM PHD2, 100 μM substrate, 300 μM 2OG, 4 mM L-ascorbate, and 50 μM Fe(NH4)2(SO4)2. For HIF-1α CODD19-mer, the background levels of methionine oxidation resulting from assay conditions were subtracted based on non-enzymatic controls ([48]).
The O2 dependence of FIH-catalyzed reactions was determined by conducting enzymatic assays in an “In vivo 500 Hypoxia Workstation” (Ruskinn) using buffers pre-equilibrated under different pO2 values for 24 h. The O2 dependence of PHD2-catalyzed reactions was determined by conducting enzymatic assays in sealed glass vials with variable N2/O2 contents ([42]). Reactions were stopped by spotting samples onto a matrix-assisted laser desorption/ionization-time of flight mass spectrometry (MALDI-TOF-MS) target plate and immediately mixing with α-cyano-4-hydroxycinnamic acid matrix. Hydroxylation levels were assessed by MALDI-TOF-MS as described ([46]).

Assay [3] addresses T1, PHD2. The assay is described as follows: Time course of PHD2-catalyzed peptide hydroxylation. Conditions: 4 μM PHD2, 100 μM peptide, 50 μM Fe(II), 300 μM 2OG, 1 mM L-ascorbate, 50 mM HEPES pH 7.5, 37 °C, atmospheric O2; MALDI-TOF-MS; triplicate assays. The protocol: as §1
(§2) FIGURE 3. PHD2- and FIH-catalyzed hydroxylation of HIF-1/2α peptide substrates. A, time course of HIF-1/2α CODD19-mer peptide hydroxylation; B, time course of HIF-1/2α NODD19-mer peptide hydroxylation. Conditions were as follows: 4 μM PHD2, 100 μM peptide, 50 μM Fe(II), 300 μM 2OG, 1 mM L-ascorbate in HEPES 50 mM (pH 7.5) were incubated at 37 °C at atmospheric O2. C, time course of HIF-1α CAD 19- and 35-mer peptide hydroxylation. D, time course of HIF-2α CAD 19- and 35-mer peptide hydroxylation. Conditions were as follows: 5 μM FIH, 500 μM peptide, 50 μM Fe(II), 500 μM 2OG, 1 mM L-ascorbate in HEPES 50 mM (pH 7.5) were incubated at 37 °C at atmospheric O2. The different hydroxylation levels were analyzed by MALDI-TOF-MS. Error bars, S.D. of triplicate assays.

Assay [4] has as its target T3, FIH (Homo sapiens, UniProt Q9NWT6).
T3 construct: Full-length recombinant FIH, two- and three-consensus ankyrin repeats (2CA and 3CA) were produced as described; His6 (cleaved yes); made in house; host or cells: Escherichia coli BL21(DE3)
The assay is described as follows: Time course of FIH-catalyzed peptide hydroxylation. As to conditions: 5 μM FIH, 500 μM peptide, atmospheric O2; for substrate hydroxylation (time course): 50 μM Fe(II), 500 μM 2OG, 1 mM L-ascorbate, 50 mM HEPES pH 7.5, 37 °C, MALDI-TOF-MS, triplicate assays. The protocol:
as §1, §2

The mark [5] stands for this setting: PHD2, 4 μM PHD2, peptide varied, 300 μM 2OG, read-out: Km^app(peptide).
Where [6] appears, read: PHD2 with the named substrate, 4 μM PHD2, 2OG varied, read-out: Km^app(2OG).

Where two headings read alike, the source gives them in different places. Some results are limits rather than exact numbers.

T2 sequence (Q9GZT9 181-426): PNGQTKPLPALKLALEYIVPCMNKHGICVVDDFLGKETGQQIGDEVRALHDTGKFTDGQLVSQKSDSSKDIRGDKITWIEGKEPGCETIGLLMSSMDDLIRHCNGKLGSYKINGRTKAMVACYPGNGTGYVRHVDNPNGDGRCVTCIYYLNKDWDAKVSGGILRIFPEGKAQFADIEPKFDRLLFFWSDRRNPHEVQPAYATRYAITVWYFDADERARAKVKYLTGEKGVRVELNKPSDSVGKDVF
T1 sequence (Q9GZT9 181-426): as above
T3 sequence (Q9NWT6 whole entry): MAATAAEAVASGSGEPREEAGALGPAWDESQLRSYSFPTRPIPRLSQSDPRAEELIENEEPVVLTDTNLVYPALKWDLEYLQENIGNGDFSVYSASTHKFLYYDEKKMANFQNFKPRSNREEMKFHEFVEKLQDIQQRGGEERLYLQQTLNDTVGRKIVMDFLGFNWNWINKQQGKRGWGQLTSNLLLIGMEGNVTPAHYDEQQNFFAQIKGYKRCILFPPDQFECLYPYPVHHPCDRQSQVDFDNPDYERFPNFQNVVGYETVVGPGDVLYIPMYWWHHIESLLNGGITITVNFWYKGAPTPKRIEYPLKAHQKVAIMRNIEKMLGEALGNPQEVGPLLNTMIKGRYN

In the case of “EELAQLAPTPGDAIISLDF [HIF-2α NODD, 19-mer fragment (398–416) of the HIF-2α N-terminal oxygen-dependent degradation domain, PHD2 substrate]”, in assay [1], the Rapid quench-flow kproduct worked out at 0.0199 ± 0.0032 s⁻¹ and the Rapid quench-flow ksuccinate turned out to be 0.0270 ± 0.0060 s⁻¹. In addition, in assay [2], the “kcat^app” value came out at 0.013 ± 0.001 s⁻¹. For the same sequence, in assay [2] (setting [5]), the Km – broadly, the substrate concentration at which the rate is half of its maximum – is 50 ± 8 µM. Besides, the Km in assay [2] (setting [6]) was 17 ± 5 µM. For the same sequence, in assay [3], the “substrate hydroxylation after 15 min” value was 20%.

“DESGLPQLTSYDCEVNAPIQGSRNLLQGEELLRAL [HIF-1α CAD35-mer]”: in assay [4], the “substrate hydroxylation (time course)” value is reported as “nearly complete substrate hydroxylation”.

“ELDLETLAPYIPMDGEDFQ [HIF-2α CODD, 19-mer fragment (523–541) of the HIF-2α C-terminal oxygen-dependent degradation domain, PHD2 substrate]”: in assay [1], the Rapid quench-flow kproduct stood at 0.0124 ± 0.0030 s⁻¹ and the Rapid quench-flow ksuccinate came to 0.0120 ± 0.0070 s⁻¹. Moreover, the “kcat^app” value in assay [2] is 0.069 ± 0.006 s⁻¹. For the same sequence, in assay [2] (setting [5]), the Km was 34 ± 10 µM. Moreover, the Km in assay [2] (setting [6]) was determined as 9 ± 2 µM. Further, the “substrate hydroxylation after 15 min” value in assay [3] turned out to be 90%.

For the sequence “ESYLLPELTRYDCEVNVPVLGSSTLLQGGDLLRAL [HIF-2α CAD35-mer]”, in assay [4], the “substrate hydroxylation (time course)” value is given as under 30%. The “increase in activity on increasing peptide length (19-mer to 35-mer)” value in assay [4] (standard conditions, 37 °C) was 10%.
